Laboratory results reported in the Kinase Knowledgebase extract (Sharma et al. 2016).

Experiments:
[1] = molecular target: MAPK14 (human) (UniProt Q16539); test: Inhibition of IL-6 Production in Whole Blood
[2] = molecular target: MAPK14 (human) (UniProt Q16539); test: Inhibition of IL-1 Production in Whole Blood
[3] = molecular target: MAPK14 (human) (UniProt Q16539); test: Inhibition of TNF Production in Whole Blood

MAPK14 (human), sequence (Q16539 whole entry, looked up): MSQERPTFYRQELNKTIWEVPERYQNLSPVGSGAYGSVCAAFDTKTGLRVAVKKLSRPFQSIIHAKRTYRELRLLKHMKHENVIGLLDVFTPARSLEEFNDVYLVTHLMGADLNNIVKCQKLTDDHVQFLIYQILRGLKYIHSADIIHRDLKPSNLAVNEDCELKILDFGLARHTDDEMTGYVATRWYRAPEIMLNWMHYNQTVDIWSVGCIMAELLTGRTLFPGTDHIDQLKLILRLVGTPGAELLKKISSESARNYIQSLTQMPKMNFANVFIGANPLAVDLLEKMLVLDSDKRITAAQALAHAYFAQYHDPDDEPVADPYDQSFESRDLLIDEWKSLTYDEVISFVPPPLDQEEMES

**Q.** For `O=C1NCN2N=C(Sc3ccc(F)cc3Cl)C=CC2=C1c1c(Cl)cccc1Cl`, which IC50 [1] is on record?
**A.** < 250 nM

**Q.** And the IC50 [2]?
**A.** 250 to 500 nM

**Q.** What about the IC50 [3] of the same molecule?
**A.** 250 to 500 nM

**Q.** With `CN(C)C=Nc1ccc(C2=C3C=CC(Sc4ccc(F)cc4Cl)=NN3CNC2=O)c(Cl)c1` as the molecule, how does the IC50 [1] read?
**A.** 250 to 500 nM

**Q.** And the IC50 [2]?
**A.** 250 to 500 nM

**Q.** And the IC50 [3]?
**A.** > 500 nM

**Q.** With `O=C(CN1CCOCC1)Nc1ccc(C2=C3C=CC(Sc4ccc(F)cc4)=NN3CNC2=O)c(Cl)c1` as the molecule, how does the IC50 [1] read?
**A.** 250 to 500 nM

**Q.** And the IC50 [2]?
**A.** > 500 nM

**Q.** What about the IC50 [3] of the same molecule?
**A.** > 500 nM

**Q.** For `Nc1ccc(C2=C3C=CC(Sc4ccc(F)cc4)=NN3CNC2=O)c(Cl)c1`, which IC50 [1] is on record?
**A.** 250 to 500 nM

**Q.** What about the IC50 [2] of the same molecule?
**A.** > 500 nM

**Q.** And the IC50 [3]?
**A.** > 500 nM

**Q.** Which results are given for `CC(=O)Nc1ccc(C2=C3C=CC(Sc4ccc(F)cc4)=NN3CNC2=O)c(Cl)c1`?
**A.** IC50 [1]: > 500 nM; IC50 [2]: > 500 nM; IC50 [3]: > 500 nM

**Q.** What does the source list for `NC(=O)C(c1cccc(-c2cccc3ccccc23)n1)c1c(Cl)cccc1Cl` (configuration not stated)?
**A.** IC50 [1]: > 500 nM; IC50 [2]: > 500 nM; IC50 [3]: > 500 nM

**Q.** Which results are given for `Cc1ccccc1-c1cccc(N(C(N)=O)c2c(F)cccc2F)n1`?
**A.** IC50 [1]: 250 to 500 nM; IC50 [2]: > 500 nM; IC50 [3]: > 500 nM

**Q.** Which IC50 [1] does the source give for `N#Cc1ccccc1SC1=NN2CNC(=O)C(c3c(Cl)cccc3Cl)=C2C=C1` here?
**A.** > 500 nM

**Q.** What about the IC50 [2] of the same molecule?
**A.** > 500 nM

**Q.** What about the IC50 [3] of the same molecule?
**A.** > 500 nM

**Q.** With `NC(=O)N(c1cccc(-c2ccccc2)n1)c1c(Cl)cccc1Cl` as the molecule, how does the IC50 [1] read?
**A.** > 500 nM

**Q.** And the IC50 [2]?
**A.** > 500 nM

**Q.** What about the IC50 [3] of the same molecule?
**A.** > 500 nM

**Q.** With `Cc1ccc(SC2=NN3CNC(=O)C(c4c(Cl)cccc4Cl)=C3C=C2)c(C)c1` as the molecule, how does the IC50 [1] read?
**A.** > 500 nM

**Q.** What about the IC50 [2] of the same molecule?
**A.** > 500 nM

**Q.** And the IC50 [3]?
**A.** > 500 nM

**Q.** For `Cc1ccccc1SC1=NN2CNC(=O)C(c3c(Cl)cccc3Cl)=C2C=C1`, which IC50 [1] is on record?
**A.** 250 to 500 nM

**Q.** And the IC50 [2]?
**A.** > 500 nM

**Q.** What does the source list for `Cc1cc(F)ccc1-c1cccc(C(C(N)=O)c2c(Cl)cc(N)cc2Cl)n1` (configuration not stated)?
**A.** IC50 [1]: > 500 nM; IC50 [2]: > 500 nM; IC50 [3]: > 500 nM

**Q.** Which results are given for `O=c1ncn2nc(Sc3ccc(F)cc3Cl)ccc2c1-c1c(Cl)cccc1Cl`?
**A.** IC50 [1]: 250 to 500 nM; IC50 [2]: 250 to 500 nM; IC50 [3]: 250 to 500 nM

**Q.** Which IC50 [1] does the source give for `O=C1NCN2N=C(Sc3ccc(F)cc3Cl)C=CC2=C1c1cc2c(cc1Cl)OCO2` here?
**A.** 250 to 500 nM

**Q.** And the IC50 [2]?
**A.** > 500 nM

**Q.** What about the IC50 [3] of the same molecule?
**A.** > 500 nM

**Q.** Which results are given for `Cc1cc(F)ccc1-c1cccc(N(C(N)=O)c2c(F)cccc2F)n1`?
**A.** IC50 [1]: 250 to 500 nM; IC50 [2]: 250 to 500 nM; IC50 [3]: 250 to 500 nM

**Q.** With `Cc1cc(F)ccc1-c1cccc(N(C(N)=O)c2c(Cl)cccc2Cl)n1` as the molecule, how does the IC50 [1] read?
**A.** 250 to 500 nM

**Q.** What about the IC50 [2] of the same molecule?
**A.** > 500 nM

**Q.** And the IC50 [3]?
**A.** > 500 nM

**Q.** With `Nc1ccc(Cl)c(C2=C3C=CC(Sc4ccc(F)cc4)=NN3CNC2=O)c1Cl` as the molecule, how does the IC50 [1] read?
**A.** > 500 nM

**Q.** And the IC50 [2]?
**A.** > 500 nM

**Q.** What about the IC50 [3] of the same molecule?
**A.** > 500 nM

**Q.** How did the IC50 [1] turn out when `Nc1ccccc1SC1=NN2CNC(=O)C(c3c(Cl)cccc3Cl)=C2C=C1` was run?
**A.** > 500 nM

**Q.** What about the IC50 [2] of the same molecule?
**A.** > 500 nM

**Q.** What about the IC50 [3] of the same molecule?
**A.** > 500 nM

**Q.** For `O=C1NCN2N=C(Sc3ccc(F)cc3)C=CC2=C1c1cc2c(cc1Cl)OCO2`, which IC50 [1] is on record?
**A.** 250 to 500 nM

**Q.** What about the IC50 [2] of the same molecule?
**A.** 250 to 500 nM

**Q.** And the IC50 [3]?
**A.** > 500 nM

**Q.** With `O=C1NCN2N=C(Sc3ccccc3CO)C=CC2=C1c1c(Cl)cccc1Cl` as the molecule, how does the IC50 [1] read?
**A.** < 250 nM

**Q.** And the IC50 [2]?
**A.** 250 to 500 nM

**Q.** And the IC50 [3]?
**A.** < 250 nM

**Q.** For `Cc1ccccc1-c1cccc(N(C(N)=O)c2c(Cl)cccc2Cl)n1`, which IC50 [1] is on record?
**A.** > 500 nM

**Q.** What about the IC50 [2] of the same molecule?
**A.** > 500 nM

**Q.** What about the IC50 [3] of the same molecule?
**A.** > 500 nM

**Q.** Which IC50 [1] does the source give for `O=C(CCl)Nc1ccc(C2=C3C=CC(Sc4ccc(F)cc4)=NN3CNC2=O)c(Cl)c1` here?
**A.** > 500 nM

**Q.** And the IC50 [2]?
**A.** > 500 nM

**Q.** And the IC50 [3]?
**A.** > 500 nM

**Q.** Which results are given for `NC(=O)C(c1cccc(-c2ccccc2CO)n1)c1c(Cl)cccc1Cl` (configuration not stated)?
**A.** IC50 [1]: > 500 nM; IC50 [2]: > 500 nM; IC50 [3]: > 500 nM

**Q.** How did the IC50 [1] turn out when `NC(=O)N(c1cccc(-c2ccc(F)cc2)n1)c1c(F)cccc1F` was run?
**A.** > 500 nM

**Q.** What about the IC50 [2] of the same molecule?
**A.** > 500 nM

**Q.** What about the IC50 [3] of the same molecule?
**A.** > 500 nM

**Q.** `Cc1cc(Cl)ccc1SC1=NN2CNC(=O)C(c3c(Cl)cccc3Cl)=C2C=C1` was tested. Which IC50 [1] did it give?
**A.** 250 to 500 nM

**Q.** And the IC50 [2]?
**A.** > 500 nM

**Q.** What about the IC50 [3] of the same molecule?
**A.** 250 to 500 nM

**Q.** Which IC50 [1] does the source give for `O=C1NCN2N=C(Sc3ccc(F)cc3)C=CC2=C1c1c(Cl)cccc1Cl` here?
**A.** 250 to 500 nM

**Q.** What about the IC50 [2] of the same molecule?
**A.** > 500 nM

**Q.** How did the IC50 [1] turn out when `O=C1NCN2N=C(Sc3ccccc3O)C=CC2=C1c1c(Cl)cccc1Cl` was run?
**A.** < 250 nM

**Q.** And the IC50 [2]?
**A.** 250 to 500 nM

**Q.** What about the IC50 [3] of the same molecule?
**A.** 250 to 500 nM

**Q.** How did the IC50 [1] turn out when `O=C1NCN2N=C(Sc3ccccc3Br)C=CC2=C1c1c(Cl)cccc1Cl` was run?
**A.** 250 to 500 nM

**Q.** And the IC50 [2]?
**A.** > 500 nM

**Q.** And the IC50 [3]?
**A.** > 500 nM
